Test results taken from patent publication US9738605B2, “Hybrid compounds of curcumin and melatonin as neuroprotectants for neurodegenerative disorders” (VIRGINIA COMMONWEALTH UNIVERSITY, priority 2013, dated 2017).
“Also recorded” adds a separate entry of the source.

Key:
[1] = biological target: T1, Aβ42 (Homo sapiens, UniProt P05067); experiment: Thioflavin T assay of Aβ42 fibril formation; type: biochemical; conditions: up to 100 μM, 48 h, ThT
T1 construct: purchased American Peptide, Inc. (Sunnyvale, Calif.)
T1 sequence (P05067 672-713 limits assumed): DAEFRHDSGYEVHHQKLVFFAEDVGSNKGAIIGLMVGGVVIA
Experimental: Briefly, 1 μL of each compound solution in DMSO (0.01 μM to 100 μM) was added to corresponding wells in a 96-well plate. Each concentration was prepared in independent triplicates and a solvent control was included. To each well, 9 μL of 25 μM Aβ42 in PBS (pH 7.4) was added, and then plates were incubated in dark at room temperature for 48 h. Next, 200 μL of a 5 μM ThT in 50 mM glycine solution (pH 8.0) was added to each well.

[2] = system: APP/PS1 transgenic mice; experiment: Oral treatment of APP/PS1 transgenic AD mouse model; type: in vivo; conditions: 50 mg/kg oral gavage, 12 weeks, 4 month-old APP/PS1 mice
Experimental: FIG. 8A-D. AM24 (7) (50 mg/kg) oral gavage treatment in 4 month-old APP/PS1 transgenic animals during 12 weeks. Immunochemistry was performed using anti-Aβ 1-16 Clone 82E1 (1/1000, Mouse) in (A) control and (B) AM24-treated mice. Percent area of (C) Cortex (Cx) and (D) Cortex plus Hippocampus (CxHp) was measured. Statistical analysis was performed by T test *p<0.05. Experiment was assessed with APP/PS1-saline (n=4) and APP/PS1-AM24 (n=7) mice. Scale bar represents 500 μm.
FIG. 9A-C. AM24 (7) (50 mg/kg) oral gavage treatment during 12 weeks in 4 month-old APP/PS1 transgenic animals. Immunochemistry was performed using anti-Aβ 1-16 Clone 82E1 (1/1000, Mouse) in (A) control and (B) AM24-treated mice. (C) Percent area Hippocampus (Hp) was measured. Experiment was assessed with APP/PS1-saline (n=4) and APP/PS1-AM24 (n=7) mice. […] Scale bar represents 200 μm.
FIG. 10A-E. AM24 (7) (50 mg/kg) oral gavage treatment during 12 weeks in 4 month-old APP/PS1 transgenic animals. Immunochemistry in (A) control and (B) AM24-treated mice and (C) Western Blot were performed using anti-GFAP (1/250 and 1/2000 respectively, Rabbit). (D) Band Intensity was compared with saline treated APP/PS1 mice. (E) Percent area Hippocampus (Hp) was measured. Experiment was assessed with APP/PS1-saline (n=4) and APP/PS1-AM24 (n=7) mice. […] Scale bar represents 200 μm. […]
FIG. 15A-B. AM24 (7) (50 mg/kg) oral gavage treatment in 4 month-old APP/PS1 transgenic animals during 12 weeks. (A) Western-blot was performed using anti-HNE (1/2000, Rabbit) stress marker. (B) Band Intensity was compared with saline treated APP/PS1 mice. Experiment was assessed with APP/PS1-saline (n=4) and APP/PS1-AM24 (n=7) mice. Statistical analysis was performed by T test ** p<0.01.
FIG. 16A-B. AM24 (50 mg/kg) oral gavage treatment in 4 month-old APP/PS1 transgenic animals during 12 weeks. (A) Mitochondrial complex Western-blot was performed using OXPhOS cocktail antibody (1/2000, Mouse) to measure I, II, III and V Complex, and MTCO CIV for complex IV (1/2000, Mouse). (B) Band Intensity was compared with saline treated APP/PS1 mice. Experiment was assessed with APP/PS1-saline (n=4) and APP/PS1-AM24 (n=7) mice. Statistical analysis was performed by T test **p<0.01.
APP/PS1 (amyloid precursor protein/presenilin-1) transgenic mice are a well known model for Alzheimer's disease. In this study, APP/PS1 mice were treated with 50 mg/kg of AM24 (compound 7) and the effects on cell type/morphology and the levels of several neuroinflammatory and stress markers was observed. […] However, there was no decrease in hippocampal plaques (FIG. 9A-C). Additionally, there was no change in the expression of glial fibrillary acid protein (GFAP), a neuroinflammation marker, in the hippocampus of AM24 treated animals (FIG. 10A-E).

[3] = system: MC65 cells; experiment: Neuroprotection assay in MC65 cells (−TC, MTT)
Experimental: MC65 cells were washed twice with PBS, resuspended in Opti-MEM, and seeded in 96-well plates (4×10^4 cells/well). Indicated compounds were then added, and cells were incubated at 37° C. under +TC or −TC conditions for 72 h. Then, 10 μL of MTT (5 mg/mL in PBS) were added and the cells were incubated for another 4 h. Cell medium was then removed, and the remaining formazan crystals produced by the cellular reduction of MTT were dissolved in DMSO. Absorbance at 570 nm was immediately recorded using a FlexStation® 3 plate reader (Molecular Devices, CA).

[4] = system: HT22 cells; experiment: Hydrogen peroxide toxicity assay in HT22 cells; type: cell-based, mouse; conditions: up to 0.3 μM, H2O2 500 μM, 24 h
Experimental: HT22 cells were seeded in 96-well plates (4×10^3 cells/well) in growth medium and incubated for 24 h at 37° C. The medium was removed and compounds were added at the indicated concentrations in fresh growth medium, and the cells were incubated for another 1 h. H2O2 was then added at a final concentration of 500 μM, and the plates were then incubated for 24 h. Cell viability was assessed by MTT assay as previously described. Values were expressed as a percentage relative to the negative (H2O2-free) control.

[5] = system: intracellular oxidative stress in MC65 cells; experiment: ROS production assay in MC65 cells (DCFH-DA); type: cell-based; conditions: −TC, 48 h, DCFH-DA 25 μM, read-out: IC50 for suppression of intracellular oxidative stress
Experimental: Cells were harvested, washed twice with cold PBS, then suspended in PBS and incubated with DCFH-DA (25 μM) in dark for 1 h. Fluorescence was analyzed by flow cytometry using a Millipore Guava® easyCyte flow cytometer.

[6] = in vitro; conditions: PAMPA
Experimental: In the same assay, 10 commercial drugs with known CNS penetration were also tested as positive controls, and their experimental values were compared to reported values (Table 1).

[7] = system: MC65 cells; experiment: Rotenone protection assay in MC65 cells; type: cell-based; conditions: up to 1 μM, rotenone 10 μM, 48 h
Experimental: The medium was removed and compounds were added at the indicated concentrations in fresh growth medium, and the cells were incubated for another 2 h. Rotenone was then added at a final concentration of 10 μM, and the plates were then incubated for 48 h. Cell viability was assessed by MTT assay.

COc1ccc2[nH]cc(CCNC(=O)CC(=O)CCc3ccc(O)cc3)c2c1 [Compound 7, 5-(4-hydroxy-phenyl)-3-oxo-pentanoic acid [2-(5-methoxy-1H-indol-3-yl)-ethyl]-amide]
inhibition of the formation of Aβ42 fibrils [1]: no significant inhibition
NADH Dehydrogenase-Complex I (mitochondrial complex Western blot) [2]: powerful increase
cortical and cortex/hippocampal amyloid plaques [2]: significant decrease
expression of 8-Hydroxyguanosine (80HG) in the hippocampus [2]: significant decrease
expression of heme-oxygenase-1 (HO-1) [2]: no change
total number and type of glial cells (hippocampus, IBA-1) [2]: remained constant
expression of 4-hydroxy-2-nonenal (HNE) ([2]; vs saline): significant decrease
expression of GFAP in the hippocampus ([2]; listed as AM24): no change; also recorded: no differences were detected
hippocampal amyloid plaques ([2]; listed as AM24): no decrease; also recorded: no differences were detected
neuroprotection of MC65 cells from −TC induced cell death ([3]; 0.3 μM, −TC, 72 h, MTT): significant and comparable protection
EC50 ([3]; MC65, 72 h, read-out: EC50 for neuroprotection of MC65 cells): 27.6 ± 9.4 nM
protection from H2O2-induced cytotoxicity [4]: no protection
IC50 [5]: ~68 nM
Papp [6]: 7.9 ± 0.6 ×10⁻⁶ cm/s
protection from rotenone-induced cytotoxicity [7]: did not show protection
